According to patent publication US20250304623A1, “PEPTIDES FOR INTRACELLULAR DELIVERY” (UNIVERSIDADE DE SANTIAGO DE COMPOSTELA, priority 2022, published 2025):
Starred links: 1 amine or outer side, 2 acyl side, 3 side chain; linkers in the order of their positions; H or OH if unused. Residues, ends and D or L forms follow the SMILES beside them. Groups on a side chain read outwards from the residue. *: point of attachment. Glutaryl = O=C(CCCC(=O)[*:2])[*:1]; NHNH2 = NN*

What was measured:
HepG2 cells = assay: RLuc pDNA delivery, robotic library screening, HepG2; type: cell-based
Procedure: Cells were seeded in a 96 well plate the day before the experiment at a concentration of 60,000 cell/mL (100 μL/w) in DMEM+10% FBS+1% Gln-Abt. For robotic library screening, the delivery of pDNA encoding for the expression of Renilla luciferase gene (RLuc, pRL-CMV (Promega, #E2261)) in six different cell lines was performed. Amphihilic molecule stock solutions in DMSO were diluted with DMEM and freshly mixed with pDNA stock solutions in DMEM prior to transfection experiments, to afford several complexes at different amphiphile concentration (2-10 μM) while maintaining a constant final pDNA concentration of 2 ng/μL. The mixture was shaken for 30 min at room temperature before the addition to the cells. The cell medium was aspirated, and cells were washed twice with PBS. Finally, 50 μL of the complex's solution were added to the cells and incubated for 4 h. After the incubation, the medium was replaced by 100 μL of fresh DMEM supplemented with 10% FBS. 72 hours after transfection the DMEM was removed, cells were washed once with HBSS and 90 μL of HBSS were added to each well. Cells were incubated at 37° C. for 30 minutes. Then basal luminescence levels were read in a plate reader. Immediately, 10 μL of coelenterazine h in HBSS were added to each well (5 μM final concentration) and cells were incubated at 37° C. for 10 minutes. Finally, the total luminescence measurement of the plates was performed. Amphiphile transfection efficiency was compared and normalized to Lipofectamine® 2000 efficiency (value of 1 in Tables 1-5 and 7; bold numbers). All experiments were done in triplicate.
(§1) Tables 1-7: RLuc (pDNA) or EGFP (mRNA) expression levels were normalized to Lipofectamine reagents (value=1) and expressed as fold-times signal increase. In the case of siRNA, the siRNA treated cells fluorescence was compared with siMOCK control fluorescence, while Cas9-RNP mediated knockout was measured against the fluorescence of untreated cells. In both siRNA and Cas9-RNP, values are expressed as % fluorescence reduction. Amphiphile concentration was 5 μM in all cases. All experiments were performed in triplicate.
Tables 8-13 show the mean (triplicates) luminescent intensity (RLU) measured after the transfection of RLuc pDNA by different amphiphiles at different concentrations in a variety of cell lines. Background luminescence values, accounted by untransfected control cells, were subtracted for processing.

[1] = test system: A549 cells expressing EGFP; assay: Cas9-RNP delivery against EGFP (gene editing, plate reader), A549; type: cell-based; details: for percentage of gene editing, GFP fluorescence intensity decrease (% of reduction): A549 cells
Procedure: To generate an EGFP expressing HeLa cell line, HeLa cells were transfected with EGFP pDNA (pEGFP-C1, Clontech) and stable transfectants were selected with 400 μg/mL of G-418 (Millipore). Green clones were selected by epifluorescence microscopy and tested for EGFP expression stability through several passages. […] All other EGFP-expressing cell lines were obtained in a similar way from parent non-EGFP-expressing cell lines.
Cells expressing EGFP were seeded in a 96 well plate the day before the experiment at a concentration of 50,000 cell/mL (100 μL/w) in DMEM+10% FBS+1% Gln-Abt. For robotic library screening, the delivery of Cas9-RNP against EGFP (RNP designed to knock-out the gene encoding for the enhanced green fluorescent protein (EGFP)) was performed. For RNP assembly, 9.2 μL of crRNA and 9.2 μL of tracrRNA were mixed in 211.6 μL of Nuclease-Free Duplex Buffer (IDT), incubated for 5 min at 95° C. and slowly cooled at rt (see I. Lostalé-Seijo, et al. Peptide/Cas9 nanostructures for ribonucleoprotein cell membrane transport and gene edition, Chem. Sci., 2017). Cas9 protein was dissolved in DMEM at a final concentration of 4 μM and equal volumes of the RNA complex and Cas9 were mixed and incubated for 5 min at rt. 75 μL of the corresponding amphiphile concentrations were added to 5 μL of RNP at 2 μM. The mixture was shaken for 30 min at room temperature before the addition to the cells. The cell medium was aspirated, and cells were washed twice with PBS. Cells were covered with 30 μL of DMEM and 20 μL of the RNP/amphiphile complexes were added to the cells (final peptide concentrations=2.5, 5 and 10 μM; final Cas9-RNP concentration=50 nM) and incubated for 4 h. After the incubation, the medium was replaced by 100 μL of fresh DMEM supplemented with 10% FBS. The total EGFP fluorescence was quantified after 72 h in a plate reader (FIG. 2, Table 1 (right) and Table 6). All experiments were done in triplicate.
as §1
Tables 26-31 show the mean (triplicates) percentage of gene editing, accounted by GFP fluorescence intensity decrease (% of reduction), measured after the transfection of Cas9-RNP by different amphiphiles at different concentrations in a variety of cell lines. Background values, accounted by untreated control cells, were subtracted for processing.

Row | Molecule | mean luminescent intensity (RLuc pDNA) (HepG2 cells; Dodecanal, 10 μM) | mean luminescent intensity (RLuc pDNA) (HepG2 cells; Dodecanal, 15 μM) | mean luminescent intensity (RLuc pDNA) (HepG2 cells; Myristoleyl, 5 μM) | mean luminescent intensity (RLuc pDNA) (HepG2 cells; Myristoleyl, 10 μM) | mean luminescent intensity (RLuc pDNA) (HepG2 cells; Myristoleyl, 15 μM) | percentage of gene editing, GFP fluorescence intensity decrease (% of reduction) ([1]; Dodecanal, 10 μM) | percentage of gene editing, GFP fluorescence intensity decrease (% of reduction) ([1]; Dodecanal, 15 μM) | percentage of gene editing, GFP fluorescence intensity decrease (% of reduction) ([1]; Myristoleyl, 5 μM) | percentage of gene editing, GFP fluorescence intensity decrease (% of reduction) ([1]; Myristoleyl, 10 μM) | percentage of gene editing, GFP fluorescence intensity decrease (% of reduction) ([1]; Myristoleyl, 15 μM) | mean luminescent intensity (RLuc pDNA) (HepG2 cells; Oleyl, 5 μM) | mean luminescent intensity (RLuc pDNA) (HepG2 cells; Oleyl, 15 μM) | mean luminescent intensity (RLuc pDNA) (HepG2 cells; Palmitoleyl, 5 μM) | mean luminescent intensity (RLuc pDNA) (HepG2 cells; Palmitoleyl, 15 μM) | percentage of gene editing, GFP fluorescence intensity decrease (% of reduction) ([1]; Oleyl, 10 μM) | percentage of gene editing, GFP fluorescence intensity decrease (% of reduction) ([1]; Oleyl, 15 μM) | percentage of gene editing, GFP fluorescence intensity decrease (% of reduction) ([1]; Palmitoleyl, 5 μM) | percentage of gene editing, GFP fluorescence intensity decrease (% of reduction) ([1]; Palmitoleyl, 10 μM) | percentage of gene editing, GFP fluorescence intensity decrease (% of reduction) ([1]; Palmitoleyl, 15 μM) | percentage of gene editing, GFP fluorescence intensity decrease (% of reduction) ([1]; Petroselinyl, 5 μM) | other results
1 | Ac-RK*LRRK*L-NH2 (Ac-RK(NHNH2)LRRK(NHNH2)L-NH2; not fully specified; printed as Ac-RK*LRRK*L-NH2; also: K*2,K*6: native or modified lysine (ε-amide to a linker)) [Peptide 7.2] | 4114 RLU | 1202 RLU | 11364 RLU | 23772 RLU | 25742 RLU | −3% | −13% | 3% | 7% | 7% |  |  |  |  |  |  |  |  |  |  | 
2 | Ac-RRLK*RLLRRLK*RLK*RRL-NH2 (Ac-RRLK(NHNH2)RLLRRLK(NHNH2)RLK(NHNH2)RRL-NH2; not fully specified; printed as Ac-RRLK*RLLRRLK*RLK*RRL-NH2; also: K*4,K*11,K*14: native or modified lysine (ε-amide to a linker)) [Peptide 17.3] | 2293 RLU | −1196 RLU | 39022 RLU |  | −417 RLU | 75% | 34% | 17% |  |  | 6483 RLU | −1375 RLU | 63064 RLU | 356 RLU | 72% | 34% | 17% | 60% | 72% | 23% | mean luminescent intensity (RLuc pDNA) (HepG2 cells; Dodecanal, 5 μM): 32417 RLU; percentage of gene editing, GFP fluorescence intensity decrease (% of reduction) ([1]; Petroselinyl, 15 μM): 66%
3 | Ac-RRLK*RLLRRLK*RL-NH2 (Ac-RRLK(NHNH2)RLLRRLK(NHNH2)RL-NH2; not fully specified; printed as Ac-RRLK*RLLRRLK*RL-NH2; also: K*4,K*11: native or modified lysine (ε-amide to a linker)) [Peptide 13.2] |  |  |  |  |  |  |  |  |  |  |  |  |  |  | 12% | 4% |  |  |  |  | percentage of gene editing, GFP fluorescence intensity decrease (% of reduction) ([1]; Oleyl, 5 μM): 10%
4 | Ac-RHLK*RHK*RRLK*RH-NH2 (Ac-RHLKRHKRRLKRH-NH2; not fully specified (residues 4, 7, 11); printed as Ac-RHLK*RHK*RRLK*RH-NH2; also: linker on K* not given here) [13(3His)] |  |  | 149920 RLU |  | 29774 RLU |  |  | 5% | 11% | 43% |  | 1389 RLU | 65912 RLU | 17170 RLU |  | 4% |  |  | 18% |  | mean luminescent intensity (RLuc pDNA) (HepG2 cells; Oleyl, 10 μM): 33557 RLU
5 | CC(=O)N[C@@H](CCCNC(=N)N)C(=O)N[C@@H](CCCCNC(=O)CCCC(=O)NN)C(=O)N[C@@H](Cc1c[nH]cn1)C(=O)N[C@@H](CCCNC(=N)N)C(=O)N[C@@H](CCCCNC(=O)CCCC(=O)NN)C(=O)N[C@@H](CCCCNC(=O)CCCC(=O)NN)C(=O)N[C@@H](Cc1c[nH]cn1)C(N)=O [7.3(L-H), Ac-RK*HRK*K*H-NH2] (Ac-RK([Glutaryl-NHNH2])HRK([Glutaryl-NHNH2])K([Glutaryl-NHNH2])H-NH2) |  |  | 355590 RLU | 584678 RLU | 406961 RLU |  | −9% | 60% | 29% | 11% | 142065 RLU |  | 642665 RLU | 265272 RLU | 31% | 9% | 67% | 35% | −6% | 59% | mean luminescent intensity (RLuc pDNA) (HepG2 cells; Oleyl, 10 μM): 68668 RLU; mean luminescent intensity (RLuc pDNA) (HepG2 cells; Palmitoleyl, 10 μM): 519370 RLU; mean luminescent intensity (RLuc pDNA) (HepG2 cells; Petroselinyl, 5 μM): 466959 RLU; mean luminescent intensity (RLuc pDNA) (HepG2 cells; Petroselinyl, 10 μM): 437890 RLU; mean luminescent intensity (RLuc pDNA) (HepG2 cells; Petroselinyl, 15 μM): 98868 RLU; Cas9-RNP % fluorescence reduction ([1]; A549, 5 μM, Myr tail): 60%; Cas9-RNP % fluorescence reduction ([1]; A549, 5 μM, Pal tail): 67%; Cas9-RNP % fluorescence reduction ([1]; A549, 5 μM, Pet tail): 58%; efficiency on GFP silencing (Cas9-RNP delivery) ([1]; A549, myristoleyl, palmitoleyl or petroselinyl aldehydes): 60-70%; percentage of gene editing, GFP fluorescence intensity decrease (% of reduction) ([1]; Oleyl, 5 μM): 22%; percentage of gene editing, GFP fluorescence intensity decrease (% of reduction) ([1]; Petroselinyl, 10 μM): 29%; percentage of gene editing, GFP fluorescence intensity decrease (% of reduction) ([1]; Petroselinyl, 15 μM): 26%
